Values quoted from earlier work, collected in patent publication US7875460B2, “Method for determining the effectiveness of stabilized chlorine dioxide in a mouth rinse” (priority 2007, dated 2011).

Assays:
[1] = in vivo
bacteria = settings: exposures as short as 10 seconds

## [O][Cl+][O-] [chlorine dioxide]
[1]
  decrease in VSCs in expired mouth air: remarkable decrease in VSCs
bacteria
  reduction in bacteria: dramatic reduction in bacteria
Sprague-Dawley rats; 0, 2, 4, 6, 12 mg/kg/day (male) and 0, 2, 5, 8, 15 mg/kg/day (female) in drinking-water for 90 days
  effects on haematology, blood biochemistry, or organ weights: no toxicologically significant effects
Sprague-Dawley rats; drinking-water for 90 days
  target tissue identified: nasal cavity findings: increased incidence of goblet cell hyperplasia, squamous metaplasia, and inflammatory responses
Sprague-Dawley rats; exposures as high as 11.5 mg/kg/day (male) and 14.9 mg/kg/day (female)
  deaths: no deaths were reported
